Target: CHK2 (Homo sapiens, UniProt O96017)
Assay: HotSpot radiometric kinase assay, CHK2
Format: biochemical
Details: compound 0.5 μM, 10 μM ATP; Fig. 4b

CHK2, sequence (O96017 whole entry): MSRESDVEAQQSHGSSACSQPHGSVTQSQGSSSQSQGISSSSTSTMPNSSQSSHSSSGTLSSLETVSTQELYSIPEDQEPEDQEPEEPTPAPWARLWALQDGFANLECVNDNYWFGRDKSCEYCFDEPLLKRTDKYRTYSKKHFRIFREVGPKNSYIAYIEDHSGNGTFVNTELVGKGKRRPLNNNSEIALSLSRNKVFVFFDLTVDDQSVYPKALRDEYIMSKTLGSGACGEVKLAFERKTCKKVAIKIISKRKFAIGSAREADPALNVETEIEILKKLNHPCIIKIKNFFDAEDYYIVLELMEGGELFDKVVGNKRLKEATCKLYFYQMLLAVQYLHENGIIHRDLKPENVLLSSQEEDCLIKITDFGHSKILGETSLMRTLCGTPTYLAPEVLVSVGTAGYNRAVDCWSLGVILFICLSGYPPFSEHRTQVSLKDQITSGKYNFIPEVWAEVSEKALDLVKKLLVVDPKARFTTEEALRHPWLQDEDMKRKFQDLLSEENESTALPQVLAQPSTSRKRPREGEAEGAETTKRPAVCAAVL

- inhibition of CHK2: potent inhibition
SMILES: COc1cc2ncnc(Nc3ccc(OCc4ccccc4)cc3)c2cc1OC [EGFR/ErbB-2 Inhibitor, 4-(4-benzyloxyanilino)-6,7-dimethoxyquinazoline]

Source: publication PMC3230241 (Nature biotechnology, 2011)
